Test results reported in PubChem BioAssay (NCI).
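Five compound concentrations were applied to cells in 96-well plates for 48 hours; endpoints were derived by simple linear interpolation of the resulting dose-response curve. The concentration for 50% growth inhibition is given as GI50. TGI is the concentration that stops growth completely.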

Legend:
Assay in all cases: NCI-60 cell line screen, 48 h
CAKI-1 renal = tested on: CAKI-1 renal
HL-60(TB) leukemia = tested on: HL-60(TB) leukemia
MALME-3M melanoma = tested on: MALME-3M melanoma
MCF7 breast = tested on: MCF7 breast
MDA-MB-435 = tested on: MDA-MB-435
NCI-H460 lung = tested on: NCI-H460 lung
SF-268 CNS = tested on: SF-268 CNS
SR leukemia = tested on: SR leukemia
SW-620 colon = tested on: SW-620 colon
UO-31 renal = tested on: UO-31 renal

| Structure (SMILES) | TGI (CAKI-1 renal) [µM] | TGI (HL-60(TB) leukemia) [µM] | TGI (MALME-3M melanoma) [µM] | TGI (MCF7 breast) [µM] | TGI (MDA-MB-435) [µM] | TGI (NCI-H460 lung) [µM] | TGI (SF-268 CNS) [µM] | TGI (SR leukemia) [µM] | TGI (SW-620 colon) [µM] | TGI (UO-31 renal) [µM] | GI50 (CAKI-1 renal) [µM] | GI50 (HL-60(TB) leukemia) [µM] | GI50 (MDA-MB-435) [µM] | GI50 (SW-620 colon) [µM] |
| --- | --- | --- | --- | --- | --- | --- | --- | --- | --- | --- | --- | --- | --- | --- |
| O=C(O)CN(CC(=O)O)C(C(=O)O)c1ccccc1 (stereo unspecified) | > 100 | > 100 | > 100 | > 100 | > 100 | > 100 | > 100 | > 100 | > 100 | > 100 | – | – | – | – |
| O=C1CS(=O)(=O)C(c2cccc(Oc3ccccc3)c2)N1c1cc(Cl)ccc1Cl (stereo unspecified) | – | 81.8 | > 100 | 35.4 | 25.9 | 53.5 | 52.8 | > 100 | > 100 | 43.7 | – | – | – | – |
| CN(C)c1cccc2c1C(=O)C=CC21c2ccc(N(C)C)c3c(N(C)C)ccc(c23)C(c2ccccc2)C1c1ccccc1 (stereo unspecified) | 17.2 | 22.6 | 35.6 | 36.9 | 30.2 | 61.5 | 53.9 | 55.1 | 54 | 12.2 | – | – | – | – |
| COC(=O)C1(O)C(c2ccccc2)=NC2(C)CCCC21 (stereo unspecified) | > 100 | – | > 100 | – | > 100 | > 100 | > 100 | > 100 | > 100 | > 100 | – | – | – | – |
| C=C1C(=O)C23C(O)CC4C5(C)CCCC4(C(O)OC5)C2C(OC(C)=O)CC1C3O (stereo unspecified) | 17.8 | – | 28.8 | – | – | 15.9 | 32.4 | 18.5 | 10.6 | > 100 | – | – | – | – |
| CC(=O)n1nc(-c2ccccc2)n(/N=C/c2ccc([N+](=O)[O-])o2)c1=O | 24.4 | 9.73 | 16.5 | 13.8 | 12.1 | 15.9 | 14.1 | 14.1 | 22.9 | 4.17 | – | – | – | – |
| CC(=O)Oc1c(C)c(C)c2c(c1C)CCC(C)(CC(=O)OCCCCCCCCCCC[P+](c1ccccc1)(c1ccccc1)c1ccccc1)O2 (stereo unspecified) | 3.27 | 0.926 | – | – | 1.2 | – | – | – | 1.33 | – | 1.72 | 0.228 | 0.31 | 0.315 |
| c1ccc2c(c1)CCCC/C2=N/OCC1CO1 (stereo unspecified) | – | 44.1 | > 100 | – | – | > 100 | > 100 | > 100 | > 100 | – | – | – | – | – |
| CC1=NNC(=O)C1C1CC(c2c[nH]c3ccccc23)=NN=C1Cl (stereo unspecified) | > 100 | 53.6 | > 100 | – | > 100 | > 100 | > 100 | – | > 100 | > 100 | – | – | – | – |
| O=S1(=O)C[C@@H](NCc2ccccc2)[C@H](NCc2ccccc2)C1 | > 100 | – | > 100 | > 100 | > 100 | > 100 | > 100 | > 100 | > 100 | > 100 | – | – | – | – |
| CN(C)c1ccc(Cc2cc3c(O)ccc(O)c3cc(Cc3ccc(N(C)C)cc3)c2=O)cc1 | 20.5 | > 37.6 | 45.4 | 58.6 | 36.9 | > 100 | > 77.5 | > 26.5 | 41.9 | 27.7 | – | – | – | – |
| COC1C(O)C(O[C@H]2CC[C@@]3(C)C(CC[C@@H]4[C@@H]3CC[C@]3(C)[C@@H](C(C)OC5OC(CO)C(O)C(O)C5O)CC[C@]43O)C2)OC(C)C1OC1OC(CO)C(O)C(O)C1O (stereo partly specified) | > 100 | – | > 100 | > 100 | > 100 | > 100 | > 100 | > 100 | > 100 | > 100 | – | – | – | – |
| CCOC(=O)C1=CC(C)(C(=O)OCC)Nc2c(nc(N)[nH]c2=O)N1 (stereo unspecified) | > 10 | – | > 10 | > 10 | > 10 | > 10 | > 10 | – | > 10 | > 10 | – | – | – | – |
| Cc1cc(C)c(/C=C(\C(=C/c2c(C)cc(C)cc2C)[N+](=O)[O-])[N+](=O)[O-])c(C)c1 | > 100 | – | – | > 100 | > 100 | > 100 | – | > 100 | > 100 | > 100 | – | – | – | – |
| O=[N+]([O-])c1cc(Cl)ccc1Sc1ccccc1 | > 100 | > 100 | > 100 | > 100 | > 100 | > 100 | > 100 | – | > 100 | > 100 | – | – | – | – |
| COc1cccc2c1OCC1Cc3ccccc3OC21 (stereo unspecified) | > 100 | – | > 100 | > 100 | 75.3 | – | > 100 | > 100 | > 100 | > 100 | – | – | – | – |
| COc1cc(/C=C2\CCC(C)/C(=C\c3cc(OC)c(OC)c(OC)c3)C2=O)cc(OC)c1OC (stereo unspecified) | 6.71 | – | – | > 100 | > 100 | – | 34.4 | – | > 100 | > 100 | – | – | – | – |
| COc1ccc2c(c1)c(=O)c1c(NCCNCCO)ccc3c(=O)n(CCN(C)C)c(=O)n2c31 | 2.79 | > 100 | 0.449 | 3.54 | 0.305 | 0.266 | 0.619 | – | 5.94 | 1.61 | – | – | – | – |
| O=C1c2cccc(O)c2C(=O)c2c(O)cc(CO)cc21 | > 100 | > 100 | 83.6 | – | – | > 100 | > 100 | > 100 | > 100 | – | – | – | – | – |
| C[C@H]1OC(=O)[C@@H]2N=NN(Cc3ccccc3)[C@H]12 | > 100 | – | > 100 | > 100 | > 100 | > 100 | > 100 | > 100 | > 100 | > 100 | – | – | – | – |
| CC(C)C(N)C(=O)NC(CCC(=O)NCCCCC(N)C(=O)NCCCNc1ccc([N+](=O)[O-])c2[nH]c3ccccc3c(=O)c12)C(N)=O (stereo unspecified) | > 100 | – | – | – | > 100 | > 100 | > 100 | – | > 100 | > 100 | – | – | – | – |
| O=C(NN1C(=O)CSC1c1cccc(F)c1)c1ccncc1 (stereo unspecified) | > 100 | > 100 | > 100 | – | – | – | > 100 | – | > 100 | > 100 | – | – | – | – |
| CSc1nc2c(ncn2C2OC(CO)C(O)C(O)C2O)c(=O)[nH]1 (stereo unspecified) | – | > 100 | > 100 | > 100 | – | > 100 | > 100 | – | > 100 | > 100 | – | – | – | – |
